The results in this text go back to US9243025B2, “Compounds and pharmaceutical compositions for the treatment of viral infections” (Idenix Pharmaceuticals, LLC, priority 2011, dated 2016).

pEC50: −log10 of the molar value. Like-named read-outs stand apart in the source and are kept apart here.

Broadly, the pEC50 is the negative decadic logarithm of the EC50, by convention in mol/L. As a reminder, the CC50 is the concentration at which the toxic effect on the cells reaches its halfway point.

What all share (assay type): cell-based
Series [1] relates to Huh-7 cells containing HCV Coni subgenomic replicon (GS4.1 cells). The experiment in a line: HCV replicon assay. The following applies: GS4.1 cells, 72 hours incubation, NS4A expression by ELISA, read-out: HCV Replicon EC50. How it is done:
(§1) Huh-7 cells containing HCV Coni subgenomic replicon (GS4.1 cells), (C. Seeger; Fox Chase University, Philadelphia, Pa., USA), are grown in Dulbecco's Modified Eagle Medium (DMEM) supplemented with 10% fetal bovine serum (FBS), 2 mM L-glutamine, 110 mg/L sodium pyruvate, 1× non-essential amino acids, 100 U/mL penicillin-streptomycin and 0.5 mg/mL G418 (Invitrogen). For dose-response testing, the cells are seeded in 96-well plates at 7.5×10^3 cells/well in a volume of 50 μL and incubated at 37° C./5% CO2. Three hours after plating, 50 μL of ten 2-fold serial dilutions of compounds (highest concentration, 75 μM) are added and cell cultures were incubated at 37° C./5% CO2 in the presence of 0.5% DMSO. Alternatively, compounds are tested at a single concentration of 15 μM. In all cases, Huh-7 cells lacking the HCV replicon served as negative control. The cells are incubated in the presence of compounds for 72 hours after which they were monitored for expression of the NS4A protein by enzyme-linked immunosorbent assay (ELISA). For this, the plates were then fixed for 1 min with 1:1 acetone:methanol, washed twice with phosphate-buffered saline (PBS), 0.1% Tween 20, blocked for 1 hour at room temperature with TNE buffer containing 10% FBS and then incubated for 2 h at 37° C. with the anti-NS4A mouse monoclonal antibody A-236 (ViroGen) diluted in the same buffer. After washing three times with PBS, 0.1% Tween 20, the cells are incubated 1 hour at 37° C. with anti-mouse immunoglobulin G-peroxidase conjugate in TNE, 10% FBS. After washing as described above, the reaction is developed with O-phenylenediamine (Zymed). The reaction is stopped after 30 minutes with […] and the absorbance is read at 492 nm using a Sunrise Tecan spectrophotometer. EC50 values are determined from the % inhibition versus concentration data using a sigmoidal non-linear regression analysis based on four parameters with Tecan Magellan software. When screening at a single concentration, the results are expressed as % inhibition at 15 μM. For cytotoxicity evaluation, GS4.1 cells are treated with compounds as described above and cellular viability was monitored using a Cell Titer 96 AQueous One Solution Cell Proliferation Assay (Promega). CC50 values are determined from the % cytotoxicity versus concentration data with Tecan Magellan software as described above.
Compounds presented in the table below were assayed according to the replicon assay described above.

The subject of a further series is GS4.1 cells. As to the kind of experiment: Cytotoxicity evaluation in GS4.1 cells (Cell Titer 96 AQueous One Solution Cell Proliferation Assay). The following applies: cellular viability, treated as in replicon assay, read-out: HCV Replicon CC50. On the procedure: as §1
Test in series [2]: as above
As to conditions: human, cellular viability, treated as in replicon assay, read-out: HCV Replicon CC50. On the procedure:
as §1

With `CCOC(=O)[C@@H](CC(C)C)NP(=O)(N[C@H](CC(C)C)C(=O)OCC)OC[C@H]1O[C@@H](n2cnc3c(OC)nc(N)nc32)C(C)(O)C1O` (some centres unmarked) [Compound 66], in series [1], the pEC50 is 6.00 to 7.00. Also, the CC50 in the series with GS4.1 cells was at most 75000 nM.

`CCOC(=O)[C@@H](NP(=O)(N[C@H](C(=O)OCC)C(C)CC)OC[C@H]1O[C@@H](n2cnc3c(N4CCCC4)nc(N)nc32)C(C)(O)C1O)C(C)CC` (some centres unmarked) [Compound 67]: the pEC50 in series [1] (Hepatitis C virus, Huh-7, 72 h) was 6.00 to 7.00. Further, the CC50 at 72 h in series [2] is above 75000 nM.

For the compound `CCOC(=O)[C@@H](NP(=O)(N[C@H](C(=O)OCC)C(C)C)OC[C@H]1O[C@@H](n2cnc3c(N4CCCC4)nc(N)nc32)C(C)(O)C1O)C(C)C` (some centres unmarked) [Compound 68], the pEC50 in series [1] (Hepatitis C virus, Huh-7, 72 h) is above 7.00. In series [2], the CC50 at 72 h was above 75000 nM.

As for `CCOC(=O)[C@H](Cc1ccccc1)NP(=O)(N[C@@H](Cc1ccccc1)C(=O)OCC)OC[C@H]1O[C@@H](n2cnc3c(N4CCCC4)nc(N)nc32)C(C)(O)C1O` (some centres unmarked) [Compound 69], the negative logarithm of the EC50 (pEC50) in series [1] (Hepatitis C virus, Huh-7, 72 h) was above 7.00. Further, in series [2], the cytotoxic concentration (CC50) at 72 h was at most 75000 nM.

As for `CCOC(=O)C(NP(=O)(NC(C(=O)OCC)C(C)C)OC[C@H]1O[C@@H](n2cnc3c(NC4CC4)nc(N)nc32)C(C)(O)C1O)C(C)C` (some centres unmarked) [Compound 70], the negative logarithm of the EC50 (pEC50) in series [1] (Hepatitis C virus, Huh-7, 72 h) was 6.00 to 7.00. For the same compound, the CC50 at 72 h in series [2] was above 75000 nM.

Turning to `CCOC(=O)[C@H](Cc1ccccc1)NP(=O)(N[C@@H](Cc1ccccc1)C(=O)OCC)OC[C@H]1O[C@@H](n2cnc3c(N4CCOCC4)nc(N)nc32)C(C)(O)C1O` (some centres unmarked) [Compound 71], the pEC50 in series [1] (Hepatitis C virus, Huh-7, 72 h) was above 7.00. In addition, the cytotoxic concentration (CC50) at 72 h in series [2] was above 75000 nM.

Regarding `CCOC(=O)[C@@H](NP(=O)(N[C@H](C(=O)OCC)C(C)C)OC[C@H]1O[C@@H](n2cnc3c(N4CCOCC4)nc(N)nc32)C(C)(O)C1O)C(C)C` (some centres unmarked) [Compound 72], the pEC50 in series [1] (Hepatitis C virus, Huh-7, 72 h) is 6.00 to 7.00. For the same compound, in series [2], the CC50 at 72 h was above 75000 nM.

Turning to `COc1nc(N)nc2c1ncn2[C@@H]1O[C@H](COP(N)(=O)OCCSC(=O)C(C)(C)CO)C(O)C1(C)O` (some centres unmarked) [Compound 73], in series [1] (Hepatitis C virus, Huh-7, 72 h), the negative-log EC50 (pEC50) was 6.00 to 7.00. In series [2], the cytotoxic concentration (CC50) at 72 h was above 75000 nM.

Turning to `CCOC(=O)CCNP(=O)(OCCSC(=O)C(C)(C)CO)OC[C@H]1O[C@@H](n2cnc3c(OC)nc(N)nc32)C(C)(O)C1O` (some centres unmarked) [Compound 74], in series [1] (Hepatitis C virus, Huh-7, 72 h), the pEC50 was 6.00 to 7.00. Also, in series [2], the CC50 at 72 h is above 75000 nM.

For the compound `CC(C)NP(=O)(OCCSC(=O)C(C)(C)CO)OC[C@H]1O[C@@H](n2cnc3c(NC4CC4)nc(N)nc32)C(C)(O)C1O` (some centres unmarked) [Compound 75], the pEC50 in series [1] (Hepatitis C virus, Huh-7, 72 h) was 6.00 to 7.00. In series [2], the half-maximal cytotoxic concentration (CC50) at 72 h was above 75000 nM.

Consider `CCOC(=O)CCNP(=O)(OCCSC(=O)C(C)(C)CO)OC[C@H]1O[C@@H](n2cnc3c(NC4CC4)nc(N)nc32)C(C)(O)C1O` (some centres unmarked) [Compound 76], for which, in series [1] (Hepatitis C virus, Huh-7, 72 h), the pEC50 was 6.00 to 7.00. For the same compound, the CC50 at 72 h in series [2] is above 75000 nM.

On to `CCOC(=O)[C@@H](NP(=O)(N[C@H](C(=O)OCC)C(C)C)OC[C@H]1O[C@@H](n2cnc3c(SC)nc(N)nc32)C(C)(O)C1O)C(C)C` (some centres unmarked) [Compound 77], for which the pEC50 in series [1] (Hepatitis C virus, Huh-7, 72 h) is 6.00 to 7.00. Moreover, the cytotoxic concentration (CC50) at 72 h in series [2] was above 75000 nM.

As to `CN(N)c1nc(N)nc2c1ncn2[C@@H]1O[C@H](COP(=O)(NCc2ccccc2)OCCSC(=O)C(C)(C)CO)C(O)C1(C)O` (some centres unmarked) [Compound 78], the pEC50 in series [1] (Hepatitis C virus, Huh-7, 72 h) is 6.00 to 7.00. The 50% cytotoxic concentration (CC50) at 72 h in series [2] was above 75000 nM.

Consider `CC(C)NP(=O)(OCCSC(=O)C(C)(C)CO)OC[C@H]1O[C@@H](n2cnc3c(Cl)nc(N)nc32)C(C)(O)C1O` (some centres unmarked) [Compound 79], for which the pEC50 in series [1] (Hepatitis C virus, Huh-7, 72 h) is above 7.00. Also, the CC50 at 72 h in series [2] is at most 75000 nM.

Regarding `CCOC(=O)[C@H](CC(C)C)NP(=O)(N[C@@H](CC(C)C)C(=O)OCC)OC[C@H]1O[C@@H](n2ccc(=O)[nH]c2=O)C(C)(O)C1O` (some centres unmarked) [Compound 80], the negative logarithm of the EC50 (pEC50) in series [1] (Hepatitis C virus, Huh-7, 72 h) was 5.00 to 6.00. In series [2], the CC50 at 72 h was above 75000 nM.

With `C#CC1(F)C(O)[C@@H](COP(=O)(N[C@@H](CC(C)C)C(=O)OCC)N[C@H](CC(C)C)C(=O)OCC)O[C@H]1n1cnc2c(NC3CC3)nc(N)nc21` (some centres unmarked) [Compound 81], in series [1] (Hepatitis C virus, Huh-7, 72 h), the pEC50 was 5.00 to 6.00. In addition, the cytotoxic concentration (CC50) at 72 h in series [2] was at most 75000 nM.
